Results reported in patent US5215744A, “Methods for the treatment of tumors” (Boehringer Ingelheim GmbH, priority 1987, dated 1993).

What was measured:
KT cells [1] = experiment: Cell proliferation inhibition test (trypan-blue exclusion), continuous exposure; type: cell-based, human
Text: (§1) Four established cell lines were used. These were MM-1CB, derived from tissues of malignant melanoma (level IV, pT4 N0 M0) in a person (Jpn. J. Dermatol. 96:947 (1986)); KT, derived from metastatic brain tumor in a person (J. Rad. Res. 26:59 (1985) and The 44th Meeting of Japanese Cancer Association, 718 (1985)); PLC/PRF/5, derived from human hepatoma (Brit. J. Cancer 34:509-515 (1976)) and a transformed cell line RSa (Virology 135:20-29 (1984), and J. Natl. Cancer Inst. 56:919-926 (1976)).
(§2) Cells were cultured with Eagle's minimal essential medium (EMEM) containing 10% fetal bovine serum (GIBCO, U.S.A.) and antibiotics ([…] streptomycin/ml and 100 units penicillin G/ml), in an incubator at 37° C. under 5% CO2.
(§3) Other chemical agents were purchased from the Nakarai Co., Ltd., Japan.
(§4) Changes of medium with and without agents were carried out every other day. The viable cells were determined by trypan-blue exclusion test and counted with a hemocytometer. The survival percentage ratio was expressed as (counts of viable cells in test dishes per counts of viable cells in control dishes) x 100%, as described elsewhere in, e.g., Mutation Research 106:357-376 (1982) and […]. 67:651-661 (1986).
(§5) Most of experiments were carried out under a dim light or in the dark. Results were expressed as the mean of values obtained from more than two independent experiments.

MM-1CB = experiment: as above; type: cell-based, human
Text: as §1, §2, §3, §4, §5

PLC/PRF/5 cells = experiment: as above; type: cell-based, human; conditions: HuIFN and dipyridamole (FIG. 5)
Text: as §1, §2, §3, §4, §5

KT cells [2] = experiment: DNA synthetic activity test ([^3 H]dTHD uptake into acid insoluble materials); type: cell-based, human; conditions: 0.1 μM dipyridamole with HuIFN-β (FIG. 8)
Text: as §1
[^3 H]dTHD uptake into acid insoluble materials were estimated in KT and RSa cells treated with the various agents, as described in J. Gen. Virol. 67:651-661 (1986).

[3] = several hours after administration; cited from earlier work
[4] = system: activity of N-phosphoracetyl-L-aspartate (PALA); conditions: in vitro and in vivo; cited from earlier work
[5] = system: human ovarian carcinoma cell line; conditions: cited from earlier work
metastasis = conditions: cited from earlier work
[6] = system: explanted mouse peritoneal leukocytes and other cells; conditions: in vitro; cited from earlier work

OCCN(CCO)c1nc(N2CCCCC2)c2nc(N(CCO)CCO)nc(N3CCCCC3)c2n1 [dipyridamole, 2,6-bis(diethanolamine)-4,8-dipiperidino-pyrimido[5,4-d]pyrimidin]
synergistic inhibitory activity, susceptibility (KT cells [1]; HuIFN and dipyridamole (FIG. 4)): high susceptibility to the synergistic inhibitory activity | inhibition of cell replication, combination (KT cells [1]; HuIFN-α with simultaneous dipyridamole (FIG. 4)): inhibition of cell replication was enhanced | influence on KT cell replication (KT cells [1]; dipyridamole alone, less than 0.1 μM (FIG. 4B)): scarcely influenced KT cell replication | concentration that enhances the inhibitory effect of HuIFN-α (KT cells [1]; with HuIFN-α (FIG. 4B)): less than 0.1 μM | effect with HuIFN-α, -β and -γ (MM-1CB; 0.1 μM dipyridamole continuously, 6 days (FIG. 3A)): additive effect with HuIFN-α, -β and -γ was also observed | inhibition of cell growth (MM-1CB; 0.1 μM dipyridamole with 10 units/ml HuIFN-β, more than 4 days (FIG. 1)): considerable inhibition of cell growth | suppression of cell proliferation (MM-1CB; agent alone: 10 units/ml HuIFN-β or 0.1 μM dipyridamole (FIG. 1)): only slightly effective in suppressing cell proliferation | lower concentration effective in enhancing the anticellular effect of HuIFN (MM-1CB; with HuIFN, 6 days (FIG. 3B)): 0.01 µM | synergistic inhibitory activity, susceptibility (PLC/PRF/5 cells): high susceptibility to the synergistic inhibitory activity | enhancement of HuIFN inhibitory effect on DNA synthesis (KT cells [2]): remarkably enhanced | concentration in blood [3]: a few micromoles | potentiation of PALA [4]: can potentiate the activity of N-phosphoracetyl-L-aspartate (PALA) in vitro and in vivo | cytotoxicity of its own ([5]; dipyridamole alone): no cytotoxicity of its own | PALA activity ([5]; with PALA): increased PALA activity | metastatic effect (metastasis): potential metastatic effect | interferon production [6]: induced interferon production in vitro in explanted mouse peritoneal leukocytes and other cells
